Assay results: patent US20100285038A1, “Factor Involved in Metastasis and Uses Thereof” (priority 2002, published 2010)
d = 2'-deoxy (DNA); m = 2'-O-methyl

B1: PRF1 specific siRNA: siRNA generated by U6+2 promoter driven expression from plasmid, directed to the mRNA of PRF1; expression cassette SEQ ID NO. 17 (nucleic acid)
DNA: GAATTCCTATTTCCCATGATTCCTTCATATTTGCATATTTTTAAAATGGACTATCATATGCTTACCGTAACTTGAAAGTATTTCGATTTCTTGGCTTTATATATCTTGGGAAAGGACGAAACACCGGGAGACTAGAGGCAGGAGCAAAAAAAAAAACTCCTGCCTCTAGTCTCCACTTTTTCTCGAG
notes: siRNA generated by U6+2 promoter driven expression from plasmid, directed to the mRNA of PRF1; 17

Columns and labels:
PRF1 protein = assay: Western blot analysis of PRF1 protein expression in PC-3 cells; format: cell-based, human; conditions: for expressed PRF1 protein: lysates of PC-3 cells treated with PRF1 specific GeneBlocs or mismatches, polyclonal antibody (FIG. 8A); for expression of PRF1 protein: PC-3 cells under hypoxic conditions, 72 h GeneBloc treatment, CoCl2 treatment for 24 h (FIG. 10B)
Protocol: A polyclonal antibody was generated against PRF1 using standard techniques. The polyclonal antibody thus obtained was tested for its specificity for PRF1. For that purpose, cell lysates from PC-3 cells treated with PRF1 specific antisense molecules, more particularly gene blocks, or mismatches thereof and cells transfected with expression plasmides for recombinant HA-tagged PRF1 were prepared. The lysates were analysed by Western blot analysis using the polyclonal antibody and the results are depicted in FIG. 8 A.
To investigate whether PI 3-kinase activity has an impact on PRF1 protein expression, PC-3 cells were treated either with LY294002 or with DMSO as control. Analysis was performed by Western Blot analysis using the polyclonal antibody as detection means for PRF1 protein. Apart from PRF1 protein, also expression of Akt and phosphorylated Akt (P*Akt) was monitored using respective specific antibodies. Additionally, the expression of p110α and p85 was monitored.
(§1) To investigate whether the expression of PRF1 at the protein level would also be dependent on Akt (PKB) activity and HIF1α activity PC-3 cells were treated with Akt specific antisense molecules. More particularly, two antisense molecules, designated Akt1-GB and Akt2-molecule were used with the readout being the same as discussed in connection with FIG. 9, whereby, additionally, the HIF1α protein expression was monitored using a commercially available protein G-purified polyclonal antibody (R&DSystems, Lot Number: IUGO13071).
(§2) The same experiment using the same markers for monitoring except Akt and P*-Akt was carried out with cells grown under hypoxic conditions which was realized by treating the cells with CoCl2. Two different forms of antisense molecules, namely HIF1α-GB66 and HIF1α-GB67 were used and respective mismatches used as controls.
(§3) A lane of the Blot represents the cell lysate of the cells shown in the corresponding photograph. As a read-out, p110 alpha and p85 are shown as loading control and the component of the PI-3K pathway investigated, i.e. AKT, monitored as P*AKT, HIF1 alpha and PRF1.

[1] = system: PRF1 (NM—019058) specific mRNA; assay: PRF1 mRNA knock-down by real time RT-PCR (Taqman) in transfected PC-3 cells; format: cell-based, human; conditions: PC-3 cells seeded on matrigel; standardized to internal p110α mRNA levels; DCt method
Protocol: Transfections were carried out in 96 well or 10-cm plates (at 30% to 50% confluency) by using various cationic lipids such as Oligofectamine, Lipofectamine (Life Technologies), NC388 (Ribozyme Pharmaceuticals, Inc., Boulder, Colo.), or FuGene 6 (Roche) according to the manufacturer's instructions. GeneBlocs were transfected by adding pre-formed 5× concentrated complex of GeneBloc and lipid in serum-free medium to cells in complete medium. The total transfection volume was 100 μl for cells plated in 96 wells and 10 ml for cells in 10 cm plates. The final lipid concentration was 0.8 to 1.2 μg/ml depending on cell density; the GeneBloc concentration is indicated in each experiment.
The RNA of cells transfected in 96-wells was isolated and purified using the Invisorb RNA HTS 96 kit (InVitek GmbH, Berlin). Inhibition of PRF1 mRNA expression was detected by real time RT-PCR (Taqman) analysis using 300 nM PRF1 5′ primer, 300 nM PRF1 3′ primer and 100 nM of the PRF1 Taqman probe Fam-Tamra labelled. […]
PC3 cells were transfected and seeded on matrigel as described and growth was monitored. mRNA was isolated from an aliquot of the cells seeded on matrigel and analysed using Taqman assay (left panel). […]

PC-3 cells [2] = assay: In vitro growth on Matrigel matrix; format: cell-based, human; conditions: PC-3 cells transfected with GeneBloc; versus corresponding mismatched oligonucleotides
Protocol: PC3 cells were treated with 10 μM LY294002 or DMSO when seeded on Matrigel. If cells were transfected previous to seeding cells were transfected with GeneBloc and trypsinized 48 h post transfection. The cells were washed in medium and seeded into duplicate 24-wells (100.000 cells per well) pre-coated with 250 μl matrigel basement membrane matrix (Becton Dickinson). After incubation for 24 to 72 h photographs were taken at 5× magnification with an Axiocam camera attached to an Axiovert 5100 microscope (Zeiss).
A more confluent growth of the cells is taken as an indication that their metastasis and migration behavior is increased which allows the cells to spread over the three-dimensional structure provided by the matrigel. The result of this example is depicted in FIG. 5.
PC3 cells were transfected and seeded on matrigel as described and growth was monitored. mRNA was isolated from an aliquot of the cells seeded on matrigel and analysed using Taqman assay (left panel). PRF1 (NM_019058) specific mRNA was standardized to internal p110α mRNA levels. A PTEN specific GeneBloc is used as a negative control in the PTEN^−/− PC-3 cells and a p110β specific GeneBloc is used as a positive control for growth in extracellular matrix. […]

HIF1α = assay: Western blot analysis of HIF1α protein expression in PC-3 cells; format: cell-based, human; conditions: PC-3 cells under hypoxic conditions; 72 h GeneBloc treatment, CoCl2 treatment for 24 h (FIG. 10B)
Protocol: as §1, §2, §3

PC-3 cells [3] = assay: Prostatic tumor growth and lymph node metastasis of PC-3 cells stably transfected with siRNA expression plasmids; format: in vivo, Shoe:NMRI-nu/nu mice; conditions: 56 days post inoculation, stably transfected PC-3 cells
Protocol: Male Shoe:NMRI-nu/nu mice (Tierzucht Schönwalde GmbH) maintained under SPF conditions (Laminar air flow equipment, Scantainer, Scanbur) served as recipients for the human prostate carcinoma cells. The animals, aged 6-8 weeks and weighing 28-30 g, were inoculated 2×10^6/0.03 ml tumor cells into both, the left dorsolateral lobe of the prostatic gland (iprost; Orthotopic) or the tip of the Lobus lateralis sinister of the liver (ihep; Ectopic). For this purpose, the mice received a total body anaesthesia using a mixture of Ketanest (Parke-Davis GmbH) and Rompun (Bayer Vital GmbH) 80:1 with dosages of 100 mg/kg and 5 mg/kg, respectively. […]
All sacrificed animals were completely dissected and photographically documented. Tumors (Prostatic gland) and metastases (Caudal, lumbar, renal lymph node metastases) were measured in two dimensions by means of a pair of callipers. The volume was calculated according to V (mm^3)=ab^2/2 with b<a. […]
The various siRNA constructs such as the ones directed to p 110 alpha, p110 beta and PTEN as well as the PRF1 specific siRNA were cloned in the same vector construct. […] Resistent pools of cells were expanded and harvested, cell number determined and prepared for animal experiment as described. […]

Molecule	expressed PRF1 protein (PRF1 protein)	expression of PRF1 protein (PRF1 protein)	expression of HIF1α at the protein level (HIF1α)	also measured
Akt2 GeneBloc: Akt specific antisense molecule (GeneBloc), SEQ ID NO: 38 (antisense UCCUUGTACCCAATGAAGGAG; sugars from the 5' end m6 d9 m6, backbone and methylation of C not given here; DNA gap phosphorothioate-linked, flank linkages not clearly stated, further chemistry not fully specified)				PRF1 protein level (PRF1 protein; PC-3 cells, 72 h after treatment with Akt specific antisense molecules (FIG. 10A)): reduction
GeneBloc 70044: third generation antisense oligonucleotide directed to PRF1 mRNA, SEQ ID NO. 8 (antisense GCUCCUGCCTCTAGTCUCCAC; sugars from the 5' end m6 d9 m6, backbone and methylation of C not given here; DNA gap phosphorothioate-linked, flank linkages not clearly stated, further chemistry not fully specified)	significant decrease			knockdown of the mRNA of PRF1 [1]: significant knockdown; growth on matrigel (PC-3 cells [2]): Specific growth inhibition
GeneBloc 70168: mismatched oligonucleotide (4 mismatches) corresponding to 70043, alias FLJ: 954L21, SEQ ID NO. 12 (CCGAAAAGAACAGTGCUCUCU; sugars from the 5' end m6 d9 m6, backbone and methylation of C not given here; DNA gap phosphorothioate-linked, flank linkages not clearly stated, further chemistry not fully specified)	significantly expressed			
HIF1α-GB66: GeneBloc antisense molecule specific for HIF1α, SEQ ID NO: 32 (antisense GGUAGUGGTGGCATTAGCAGU; sugars from the 5' end m6 d9 m6, backbone and methylation of C not given here; DNA gap phosphorothioate-linked, flank linkages not clearly stated, further chemistry not fully specified)		reduced	significantly reduced	
HIF1α-GB67: GeneBloc antisense molecule specific for HIF1α, SEQ ID NO: 34 (antisense UGACUCCTTTTCCTGCUCUGU; sugars from the 5' end m6 d9 m6, backbone and methylation of C not given here; DNA gap phosphorothioate-linked, flank linkages not clearly stated, further chemistry not fully specified)		reduced	significantly reduced	
B1				prostatic tumor growth (volume of primary prostate tumors) (PC-3 cells [3]; EGFP expression plasmid as control (FIG. 6C)): significantly inhibited; total lymph node metastasis (volume) (PC-3 cells [3]; EGFP expression plasmid as control (FIG. 6D)): less prominent
